Values quoted from earlier work in patent US7371877B2, “Glycerol ester derivative” (FUJIFILM Corporation, priority 2002, dated 2008).

Conditions: J. Med. Chem., 25, 1500 (1982); cited from earlier work

## CCC(Cc1c(I)cc(I)c(N)c1I)C(=O)OC1CCC2(C)C(=CCC3C2CCC2(C)C(C(C)CCCC(C)C)CCC32)C1 (stereo not shown) [Cholesterol iopanoate]
  Accumulation in the liver: known to accumulate in the liver of a living body
